US8933022B2, “Methods and compositions for the treatment and prevention Hypoglycemia and related disorders” (JDS Therapeutics, LLC, priority 2011, dated 2015)
Marks after values point to notes of the source that are not given here.

Experiments:
GLUT-1 [1] = assay: Brain GLUT-1 expression in insulin-induced hypoglycemic rats; details: 15 U insulin/kg i.p., 110 μg/kg/day, one week, mean ± s.d.
Experimental: (§1) In order to evaluate chromium's potential protective effects preventing insulin-induced hypoglycemia, animals were administered insulin to induce hypoglycemia, and markers of hypoglycemic brain damage were compared in animals with and without administration of chromium.
(§2) Briefly, hypoglycemia was induced in Sprague-Dawley rats (males, 8-weeks old) by intraperitoneal injection of 15 U insulin/kg BW. The rats were separated into four groups of 15 rats each: (1) a control group not receiving insulin (“Control”); (2) a group not administered chromium (“Hypo”); (3) a group administered 110 μg/kg/day of chromium picolinate (CrPic); and, a group administered 110 μg/kg/day of chromium histidinate (CrHis). After one week of dosing, brains were removed from the sacrificed rats and analyzed for markers of hypoglycemic damage: GLUT-1; GLUT-3; Nrf2; GFAP; and HNE.

[2] = Serum glucose 0.5 hrs after insulin injection in insulin-induced hypoglycemic rats; type: in vivo, Sprague-Dawley rats; details: 15 U insulin/kg i.p., 110 μg/kg/day chromium complex, one week, mean ± s.d.
GLUT-3 [3] = assay: Brain GLUT-3 expression in insulin-induced hypoglycemic rats; details: 15 U insulin/kg i.p., 110 μg/kg/day, one week, mean ± s.d.
Experimental: as §1, §2

GFAP = assay: Hippocampus GFAP expression in insulin-induced hypoglycemic rats; details: 15 U insulin/kg i.p., 110 μg/kg/day, one week, mean ± s.d.
Experimental: as §1, §2

Nrf2 = assay: Hippocampus Nrf2 expression in insulin-induced hypoglycemic rats; details: 15 U insulin/kg i.p., 110 μg/kg/day, one week, mean ± s.d.
Experimental: as §1, §2

HNE = assay: Hippocampus HNE expression in insulin-induced hypoglycemic rats; details: 15 U insulin/kg i.p., 110 μg/kg/day, one week, mean ± s.d.
Experimental: as §1, §2

[4] = Glucose pattern before and after injection in type-1 diabetes induced rats; type: in vivo, Wistar rats; details: STZ rats; for Glucose, Day 4, After / Glucose, Day 6, After / Glucose, Day 12, After / Glucose, Day 21, After: after injection; for Glucose, Day 4, After / Glucose, Day 4, Before: no unit in table (mg/dl); for Glucose, Day 6, After / Glucose, Day 12, After / Glucose, Day 21, After / Glucose, Day 6, Before / Glucose, Day 12, Before / Glucose, Day 21, Before: no unit in table; for Glucose, Day 4, Before / Glucose, Day 6, Before / Glucose, Day 12, Before / Glucose, Day 21, Before: before injection
Experimental: (§3) Forty-two Wistar rats were assigned to one of 6 experimental groups: 1) positive control: rats injected with saline 2) type-1 diabetes group: rats injected with streptozotocin (STZ, 65 mg/kg i.p.) to damage beta cells (n=35). Diabetic rats were then administered with a) none, b) Zn alone (6.23 μg ZnO), c) Cr alone (47.7 μg Cr-histidinate), d) Zn-insulin (6.23 μg ZnO+3 IU Ins/100 g BW), or e) Cr-insulin (47.7 μg Cr-histidinate+3 IU Ins/100 g BW), daily for 26 days (n=7 per subgroup). Body weights were measured at the beginning and end of the experiment.
(§4) Blood samples were collected on days—2 (beginning), 0 (induction), 4, 6, 12, and 26 for blood biochemistry. At the end of the experiment, rats were sacrificed for brain tissue GLUTs (1 and 3). Data were analyzed using one-way ANOVA with LSD option for mean comparison.

[5] = tested on: MRP2 (multidrug resistance protein 2); assay: Kidney MRP2 levels in type-1 diabetes induced rats; details: bands, STZ rats, n = 7; control = 100.00
Experimental: as §3, §4

[6] = tested on: OCT-1 (organic cation transporter 1); assay: Kidney OCT-1 levels in type-1 diabetes induced rats; type: in vivo, Wistar rats; details: bands, STZ rats, n = 7; control = 100.00 (percentage of control)
[7] = Blood biochemistry of type-1 diabetes induced rats at the end of the experiment; type: in vivo, Wistar rats; details: STZ rats, daily for 26 days
Experimental: as §3, §4

[8] = tested on: NFK (nuclear factor kappa B); assay: Brain NFK levels in type-1 diabetes induced rats; type: in vivo, Wistar rats; details: bands, STZ rats, n = 7; control = 100.00
Experimental: as §3, §4

[9] = Body weight of type-1 diabetes induced rats (Example 8); type: in vivo, Wistar rats; details: Example 8, STZ rats, n = 7; for Initial BW: before treatment; for BW Change / Final BW: daily for 26 days
Experimental: as §3, §4

GLUT-1 [10] = assay: Cerebral GLUT-1 expression in type-1 diabetes induced rats; type: in vivo, Wistar rats; details: STZ rats, daily for 26 days; control = 100.00
Experimental: as §3, §4

Tryptophan = assay: Brain tryptophan in type-1 diabetes induced rats; type: in vivo, Wistar rats; details: STZ rats, n = 7; footnote: daily for 8 weeks
[11] = tested on: NFK (nuclear factor kappa B); assay: Kidney NFK levels in type-1 diabetes induced rats; type: in vivo, Wistar rats; details: bands, STZ rats, n = 7; control = 100.00
[12] = Serum and brain chromium in type-1 diabetes induced rats; details: STZ rats, n = 7; footnote: daily for 8 weeks
Experimental: as §3, §4

OCT-2 = assay: Kidney OCT-2 levels in type-1 diabetes induced rats; type: in vivo, Wistar rats; details: bands, STZ rats, n = 7; control = 100.00
insulin = assay: Brain insulin levels in type-1 diabetes induced rats; type: in vivo, Wistar rats; details: bands, STZ rats, n = 7; control = 100.00
Experimental: as §3, §4

GLUT-3 [13] = assay: Cerebral GLUT-3 expression in type-1 diabetes induced rats; type: in vivo, Wistar rats; details: STZ rats, daily for 26 days; control = 100.00
Experimental: Forty-two Wistar rats were assigned to one of 6 experimental groups: 1) positive control: rats injected with saline 2) type-1 diabetes group: rats injected with streptozotocin (STZ, 65 mg/kg i.p.) to damage beta cells (n=35). Diabetic rats were then administered with a) none, b) Zn alone (6.23 μg ZnO), c) Cr alone (47.7 μg Cr-histidinate), d) Zn-insulin (6.23 μg ZnO+3 IU Ins/100 g BW), or e) Cr-insulin (47.7 μg Cr-histidinate+3 IU Ins/100 g BW), daily for 26 days (n=7 per subgroup).
At the end of the experiment, rats were sacrificed for brain tissue GLUTs (1 and 3). Data were analyzed using one-way ANOVA with LSD option for mean comparison.

Serotonin = assay: Brain serotonin in type-1 diabetes induced rats; type: in vivo, Wistar rats; set-up: unit not given here; details: STZ rats, n = 7; footnote: daily for 8 weeks
[14] = Brain chromium levels in insulin-induced hypoglycemic rats; details: 15 U insulin/kg i.p., 110 μg/kg/day, one week, mean ± s.d.
Experimental: as §1, §2

chromium picolinate [CrPic]
Cerebellum GLUT-1 Expression (GLUT-1 [1]): 75.6 ± 7.6 % Control | Cortex GLUT-1 Expression (GLUT-1 [1]): 122.8 ± 1.3 % Control | Hippocampus GLUT-1 Expression (GLUT-1 [1]): 102.3 ± 5.5 % Control | Serum Glucose at 0.5 hrs [2]: 40.7 ± 5.2 mg/dL | Cerebellum GLUT-3 Expression (GLUT-3 [3]): 206.3 ± 6.4 % Control | Cortex GLUT-3 Expression (GLUT-3 [3]): 319.5 ± 14.6 % Control | Hippocampus GLUT-3 Expression (GLUT-3 [3]): 198.6 ± 8.9 % Control | Hippocampus GFAP Expression (GFAP): 251.2 ± 9.1 % Control | Hippocampus Nrf2 Expression (Nrf2): 38.9 ± 3.6 % Control | Hippocampus HNE Expression (HNE): 162.5 ± 12.4 % Control

[O]=[Zn] [STZ + Zn, zinc oxide]
Glucose, Day 4, After [4]: 303 | Glucose, Day 6, After [4]: 372 | Glucose, Day 12, After [4]: 412 | Glucose, Day 21, After [4]: 329 | Glucose, Day 4, Before [4]: 457 | Glucose, Day 6, Before [4]: 350 | Glucose, Day 12, Before [4]: 421 | Glucose, Day 21, Before [4]: 380 | Kidney mrp2 [5]: 148.73 ± 2.74^b | Kidney oct1 [6]: 50.02 ± 2.05^d | ALP [7]: 453 ± 11^b U/L | ALT [7]: 143 ± 9^b U/L | AST [7]: 328 ± 17^a U/L | Albumin [7]: 2.59 ± 0.06^b g/dL | CK [7]: 6872 ± 1248^b U/L | Creatinine [7]: 1.05 ± 0.07^b mg/dL | Glucose [7]: 456 ± 13^ab mg/dL | Insulin [7]: 20.9 ± 0.9^bc μU/mL | K [7]: 5.53 ± 0.09^b mmol/L | LDH [7]: 2564 ± 85^ab U/L | Total protein [7]: 5.91 ± 0.07^b g/dL | Urea [7]: 65.6 ± 1.0^b mg/dL | Uric acid [7]: 6.49 ± 0.69^ab mg/dL | Brain nfk [8]: 150.59 ± 2.73^b | Initial BW [9]: 195.43 ± 7.63 g | BW Change [9]: −9.71 ± 4.03^bc % | Final BW [9]: 175.71 ± 7.67^bc g | cerebral GLUT-1 expression (GLUT-1 [10]): 46.82 ± 3.23^c | Brain Tryptophan (Tryptophan): 4.54 ± 0.23^d mcg/g | Kidney nfk [11]: 120.31 ± 1.65^b | Brain Cr [12]: 9.05 ± 0.56^d ng/g | Serum Cr [12]: 33.65 ± 2.26^d mcg/g | Kidney oct2 (OCT-2): 51.38 ± 1.17^d | Brain ins (insulin): 44.08 ± 3.31^c | cerebral GLUT-3 expression (GLUT-3 [13]): 43.41 ± 3.53^c

chromium histidinate [CrHis]
Cerebellum GLUT-1 Expression (GLUT-1 [1]): 83.0 ± 4.2 % Control | Cortex GLUT-1 Expression (GLUT-1 [1]): 99.9 ± 7.3 % Control | Hippocampus GLUT-1 Expression (GLUT-1 [1]): 103.7 ± 2.8 % Control | Glucose, Day 4, After [4]: 237 | Glucose, Day 6, After [4]: 349 | Glucose, Day 12, After [4]: 349 | Glucose, Day 21, After [4]: 303 | Glucose, Day 4, Before [4]: 403 | Glucose, Day 6, Before [4]: 330 | Glucose, Day 12, Before [4]: 340 | Glucose, Day 21, Before [4]: 368 | Serum Glucose at 0.5 hrs [2]: 42.6 ± 6.8 mg/dL | Cerebellum GLUT-3 Expression (GLUT-3 [3]): 166.9 ± 2.2 % Control | Cortex GLUT-3 Expression (GLUT-3 [3]): 287.5 ± 31.3 % Control | Hippocampus GLUT-3 Expression (GLUT-3 [3]): 177.8 ± 4.7 % Control | Brain Serotonin (Serotonin): 512 ± 7 | Kidney mrp2 [5]: 140.21 ± 2.05^b | Kidney oct1 [6]: 50.90 ± 1.71^d | Hippocampus GFAP Expression (GFAP): 204.9 ± 4.9 % Control | ALP [7]: 442 ± 13^bc U/L | ALT [7]: 125 ± 12^bc U/L | AST [7]: 291 ± 24^ab U/L | Albumin [7]: 2.74 ± 0.06^ab g/dL | CK [7]: 6745 ± 934^b U/L | Creatinine [7]: 0.90 ± 0.08^bc mg/dL | Glucose [7]: 423 ± 15^bc mg/dL | Insulin [7]: 22.0 ± 0.8^bc μU/mL | K [7]: 5.57 ± 0.12^b mmol/L | LDH [7]: 2367 ± 52^b U/L | Total protein [7]: 6.07 ± 0.12^b g/dL | Urea [7]: 62.1 ± 2.5^bc mg/dL | Uric acid [7]: 6.21 ± 0.57^b mg/dL | Brain nfk [8]: 134.24 ± 4.10^b | Initial BW [9]: 195.43 ± 5.94 g | BW Change [9]: −10.17 ± 3.94^bc % | Final BW [9]: 176.57 ± 12.27^bc g | Brain Cr Levels [14]: 21.6 ± 1.7 ng/g | cerebral GLUT-1 expression (GLUT-1 [10]): 53.81 ± 3.53^c | Brain Tryptophan (Tryptophan): 4.74 ± 0.36^d mcg/g | Kidney nfk [11]: 118.86 ± 1.47^b | Brain Cr [12]: 11.87 ± 0.89^c ng/g | Serum Cr [12]: 48.64 ± 2.70^c mcg/g | Hippocampus Nrf2 Expression (Nrf2): 61.8 ± 1.4 % Control | Hippocampus HNE Expression (HNE): 140.1 ± 12.0 % Control | Kidney oct2 (OCT-2): 53.50 ± 1.13^d | Brain ins (insulin): 47.89 ± 4.67^c | cerebral GLUT-3 expression (GLUT-3 [13]): 49.41 ± 2.39^c
